According to ChEMBL document CHEMBL1149930, “3-Hydroxy-19-nor-17-pregna-1,3,5(10)-triene-21,17-carbolactone as inhibitor of 17-hydroxysteroid dehydrogenase type 2” (Bioorg Med Chem Lett, 1994):

Tests used:
[1] = molecular target: T1, 17-beta-hydroxysteroid dehydrogenase type 2 (Homo sapiens, UniProt P37059); assay: Inhibitory activity against human placenta 17-beta-hydroxysteroid dehydrogenase type 2 (17-beta-HSD type 2)
T1 sequence (P37059 whole entry): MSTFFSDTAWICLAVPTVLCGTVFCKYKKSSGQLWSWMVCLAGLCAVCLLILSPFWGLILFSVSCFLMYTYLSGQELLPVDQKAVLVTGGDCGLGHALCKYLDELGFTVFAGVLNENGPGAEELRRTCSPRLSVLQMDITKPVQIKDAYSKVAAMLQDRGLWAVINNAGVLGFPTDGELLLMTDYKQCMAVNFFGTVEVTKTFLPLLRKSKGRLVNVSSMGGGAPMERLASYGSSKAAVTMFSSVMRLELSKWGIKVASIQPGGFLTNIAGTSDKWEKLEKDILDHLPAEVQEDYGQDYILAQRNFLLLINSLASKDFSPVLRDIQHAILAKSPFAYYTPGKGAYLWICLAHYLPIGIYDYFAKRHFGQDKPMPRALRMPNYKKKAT

[2] = molecular target: T1, 17-beta-hydroxysteroid dehydrogenase type 2; assay: Inhibitory constant against human placenta 17-beta-hydroxysteroid dehydrogenase type 2 (17-beta-HSD type 2)

| Compound | IC50 [1] [nM] | Ki [2] [nM] |
| --- | --- | --- |
| C[C@]12CCC3C4=CCC(=O)C=C4CCC3C1CC[C@@]21CCC(=O)O1 (stereo partly drawn) | 1410 | – |
| C[C@]12CC[C@@H]3c4ccc(O)cc4CC[C@H]3[C@@H]1CC[C@@]21CCC(=O)O1 | 270 | 250 |
